Read-outs that look alike come from different tables or passages of the source.
What was measured:
Format in all cases: physicochemical
[1] = Amyloid-forming properties of the peptide screen (overall call from Th-T, pFTAA, TEM)
Source text: In the interest of improving the current description of the familiar amyloidogenic protein dataset, we selected and synthesised a subset of 96 peptides corresponding to strong aggregation prone regions identified in these proteins by Cordax. Apart of prediction strength, the peptide screen was also selectively constructed to ensure broad sequence variability and a wide distribution on the proteins of the dataset, with a preference for longer entries defined by inadequate previous characterisation. Peptide sequences were cross-checked and filtered to exclude overlapping sequences with previously identified amyloid regions and WALTZ-DB (see Table 2). The remaining selection of 96 peptides were synthesized using standard solid phase synthesis and their amyloid-forming properties were initially examined using Thioflavin-T (Th-T) or pFTAA binding, following rotating incubation for 5 days at room temperature. The binding assays are complementary, as Th-T and pFTAA are opposingly charged molecules, which increases the amyloid identification rate by overcoming cases of dye-specific failure to bind to amyloid surfaces based on charge repulsion. Under these conditions, 66 peptides successfully bind the specific dyes (FIGS. 3a & 3b) by forming fibrils with typical amyloid morphologies and properties that were verified using transmission electron microscopy (FIG. 3c) and Congo red staining for selected cases (FIG. 3d). As these dyes are known to yield false negatives, in particular for short peptides, all dye-negative peptides were further investigated using electron microscopy. During this scan, we recovered 19 additional sequences that were capable of forming sparse amyloid-like fibrils with shorter lengths (see FIG. 8). […]
(§1) Peptides derived from the Cordax validation set were synthesized using an Intavis Multipep RSi solid phase peptide synthesis robot. Peptide purity (>90%) was evaluated using RP-HPLC purification protocols and peptides were stored as ether precipitates (−20° C.). Peptide stocks were initially treated with 1,1,1,3,3,3-hexafluoro-isopropanol (HFIP) (Merck), then dissolved in traces of dimethyl sulfoxide (DMSO) (Merck) (<5%), filtered through 0.2 μm filters and finally in milli-Q water to reach a final concentration of 200 μM or up to 1 mM for dye-negative peptides. Dithiothreitol (DTT) (1 mM) was included in solutions of peptides spanning cysteine or methionine residues. All peptides were incubated at room temperature for a period of 5 days on a rotating wheel.
(§2) Amyloid aggregation was monitored using fluorescent spectroscopy binding assays. Th-T (Sigma) or pFTAA (Ebba Biotech AB) was added in half-area black 96-well microplates (Corning, USA) at a final concentration of 25 μM and 0.5 μM, respectively. Fluorescence intensity was measured in replicates (n=6) using a PolarStar Optima and a FluoStar Omega plate reader (BMG Labtech, Germany), equipped with an excitation filter at 440 nm and emission filters at 480 nm and 510 nm, respectively.
(§3) Peptide solutions were incubated for 5 days at room temperature in order to form mature amyloid-like fibrils. Suspensions (5 μL) of each peptide solution were added on 400-mesh carbon-coated copper grids (Agar Scientific Ltd., England), following a glow-discharging step of 30 s to improve sample adsorption. Grids were washed with milli-Q water and negatively stained using uranyl acetate (2% w/v in milli-Q water). Grids were examined with a JEM-1400 120 kV transmission electron microscope (JEOL, Japan), operated at […].

[2] = Transmission electron microscopy of peptide fibrils
Source text: (§4) In the interest of improving the current description of the familiar amyloidogenic protein dataset, we selected and synthesised a subset of 96 peptides corresponding to strong aggregation prone regions identified in these proteins by Cordax. Apart of prediction strength, the peptide screen was also selectively constructed to ensure broad sequence variability and a wide distribution on the proteins of the dataset, with a preference for longer entries defined by inadequate previous characterisation. Peptide sequences were cross-checked and filtered to exclude overlapping sequences with previously identified amyloid regions and WALTZ-DB (see Table 2). The remaining selection of 96 peptides were synthesized using standard solid phase synthesis and their amyloid-forming properties were initially examined using Thioflavin-T (Th-T) or pFTAA binding, following rotating incubation for 5 days at room temperature. The binding assays are complementary, as Th-T and pFTAA are opposingly charged molecules, which increases the amyloid identification rate by overcoming cases of dye-specific failure to bind to amyloid surfaces based on charge repulsion. Under these conditions, 66 peptides successfully bind the specific dyes (FIGS. 3a & 3b) by forming fibrils with typical amyloid morphologies and properties that were verified using transmission electron microscopy (FIG. 3c) and Congo red staining for selected cases (FIG. 3d). As these dyes are known to yield false negatives, in particular for short peptides, all dye-negative peptides were further investigated using electron microscopy. During this scan, we recovered 19 additional sequences that were capable of forming sparse amyloid-like fibrils with shorter lengths (see FIG. 8).
as §3

[3] = pFTAA binding assay of synthetic peptides; details: 200 μM peptide, rotation 5 days, room temperature; pFTAA 0.5 μM
Source text: as §4, §1, §2

[4] = Thioflavin-T binding assay of synthetic peptides; details: 200 μM peptide, rotation 5 days, room temperature; Th-T 25 μM
Source text: as §4, §1, §2

[5] = amyloid-like fibrils after 5 days at room temperature

AAYLWV
Amyloid ([1]; overall amyloid-forming call): ● | TEM [2, 5]: ● | pFTAA Binding [3]: ● | Th-T Binding [4]: ●

AEIEIE
Amyloid ([1]; overall amyloid-forming call): ● | TEM [2, 5]: ● | pFTAA Binding [3]: ● | Th-T Binding [4]: ●

AFFLFC
Amyloid ([1]; overall amyloid-forming call): ● | pFTAA Binding [3]: ● | Th-T Binding [4]: ●

ASLTIL
Amyloid ([1]; overall amyloid-forming call): ● | TEM [2, 5]: ● | pFTAA Binding [3]: ● | Th-T Binding [4]: ●

AYVILK
Amyloid ([1]; overall amyloid-forming call): ● | pFTAA Binding [3]: ●

CEFLRK
Amyloid ([1]; overall amyloid-forming call): ● | pFTAA Binding [3]: ●

DCFEYV
Amyloid ([1]; overall amyloid-forming call): ● | pFTAA Binding [3]: ● | Th-T Binding [4]: ●

DLVVFE
Amyloid ([1]; overall amyloid-forming call): ● | pFTAA Binding [3]: ● | Th-T Binding [4]: ●

EDCFIL
Amyloid ([1]; overall amyloid-forming call): ● | pFTAA Binding [3]: ● | Th-T Binding [4]: ●

EVYKWT
Amyloid ([1]; overall amyloid-forming call): ● | pFTAA Binding [3]: ●

FEYVQL
Amyloid ([1]; overall amyloid-forming call): ● | pFTAA Binding [3]: ● | Th-T Binding [4]: ●

FKVAIV
Amyloid ([1]; overall amyloid-forming call): ● | pFTAA Binding [3]: ●

FLGYFK
Amyloid ([1]; overall amyloid-forming call): ● | TEM [2, 5]: ●

FSFTIA
Amyloid ([1]; overall amyloid-forming call): ● | pFTAA Binding [3]: ● | Th-T Binding [4]: ●

FVIEEV
Amyloid ([1]; overall amyloid-forming call): ● | TEM [2, 5]: ● | pFTAA Binding [3]: ● | Th-T Binding [4]: ●

FYAVRL
Amyloid ([1]; overall amyloid-forming call): ● | TEM [2, 5]: ●

GDVAFI
Amyloid ([1]; overall amyloid-forming call): ● | pFTAA Binding [3]: ● | Th-T Binding [4]: ●

GVIHYI
Amyloid ([1]; overall amyloid-forming call): ● | TEM [2, 5]: ●

GWFLGW
Amyloid ([1]; overall amyloid-forming call): ● | Th-T Binding [4]: ●

GWNIPM
Amyloid ([1]; overall amyloid-forming call): ● | pFTAA Binding [3]: ●

GYLTIR
Amyloid ([1]; overall amyloid-forming call): ● | TEM [2, 5]: ●

GYTLFS
Amyloid ([1]; overall amyloid-forming call): ● | TEM [2, 5]: ●

HYYAVA
Amyloid ([1]; overall amyloid-forming call): ● | pFTAA Binding [3]: ●

IFTVQL
Amyloid ([1]; overall amyloid-forming call): ● | TEM [2, 5]: ● | pFTAA Binding [3]: ● | Th-T Binding [4]: ●

IGINIK
Amyloid ([1]; overall amyloid-forming call): ● | TEM [2, 5]: ●

IGVVGW
Amyloid ([1]; overall amyloid-forming call): ● | pFTAA Binding [3]: ● | Th-T Binding [4]: ●

IGYNIK
Amyloid ([1]; overall amyloid-forming call): ● | TEM [2, 5]: ●

IIYNWQ
Amyloid ([1]; overall amyloid-forming call): ● | TEM [2, 5]: ● | pFTAA Binding [3]: ● | Th-T Binding [4]: ●

ILLLFE
Amyloid ([1]; overall amyloid-forming call): ● | TEM [2, 5]: ● | pFTAA Binding [3]: ● | Th-T Binding [4]: ●

INAWLF
Amyloid ([1]; overall amyloid-forming call): ● | pFTAA Binding [3]: ● | Th-T Binding [4]: ●

INFEFS
Amyloid ([1]; overall amyloid-forming call): ● | pFTAA Binding [3]: ● | Th-T Binding [4]: ●

IQIHHY
Amyloid ([1]; overall amyloid-forming call): ● | TEM [2, 5]: ●

IQVYSR
Amyloid ([1]; overall amyloid-forming call): ● | TEM [2, 5]: ● | pFTAA Binding [3]: ● | Th-T Binding [4]: ●

LCSTFC
Amyloid ([1]; overall amyloid-forming call): ● | pFTAA Binding [3]: ● | Th-T Binding [4]: ●

LHCLRR
Amyloid ([1]; overall amyloid-forming call): ● | pFTAA Binding [3]: ●

LIFMGH
Amyloid ([1]; overall amyloid-forming call): ● | pFTAA Binding [3]: ● | Th-T Binding [4]: ●

LIVSIL
Amyloid ([1]; overall amyloid-forming call): ● | pFTAA Binding [3]: ● | Th-T Binding [4]: ●

LLDNWD
Amyloid ([1]; overall amyloid-forming call): ● | pFTAA Binding [3]: ●

LLFKDS
Amyloid ([1]; overall amyloid-forming call): ● | TEM [2, 5]: ●

LLVYNK
Amyloid ([1]; overall amyloid-forming call): ● | TEM [2, 5]: ●

LNLKLL
Amyloid ([1]; overall amyloid-forming call): ● | pFTAA Binding [3]: ●

LNSVFK
Amyloid ([1]; overall amyloid-forming call): ● | TEM [2, 5]: ●

LQVDLG
Amyloid ([1]; overall amyloid-forming call): ● | pFTAA Binding [3]: ● | Th-T Binding [4]: ●

LSIWES
Amyloid ([1]; overall amyloid-forming call): ● | pFTAA Binding [3]: ● | Th-T Binding [4]: ●

LVMELD
Amyloid ([1]; overall amyloid-forming call): ● | pFTAA Binding [3]: ● | Th-T Binding [4]: ●

LYHGQT
Amyloid ([1]; overall amyloid-forming call): ● | TEM [2, 5]: ●

LYHLVT
Amyloid ([1]; overall amyloid-forming call): ● | TEM [2, 5]: ●

MDKVER
Amyloid ([1]; overall amyloid-forming call): ● | TEM [2, 5]: ●

MDVFMK
Amyloid ([1]; overall amyloid-forming call): ● | pFTAA Binding [3]: ● | Th-T Binding [4]: ●

MELIVS
Amyloid ([1]; overall amyloid-forming call): ● | pFTAA Binding [3]: ● | Th-T Binding [4]: ●

MFSEFD
Amyloid ([1]; overall amyloid-forming call): ● | pFTAA Binding [3]: ● | Th-T Binding [4]: ●

MIIYKG
Amyloid ([1]; overall amyloid-forming call): ● | pFTAA Binding [3]: ●

MLHKEF
Amyloid ([1]; overall amyloid-forming call): ● | Th-T Binding [4]: ●

MSVSLV
Amyloid ([1]; overall amyloid-forming call): ● | pFTAA Binding [3]: ● | Th-T Binding [4]: ●

MVVEHP
Amyloid ([1]; overall amyloid-forming call): ● | pFTAA Binding [3]: ●

MYVSEM
Amyloid ([1]; overall amyloid-forming call): ● | pFTAA Binding [3]: ● | Th-T Binding [4]: ●

NDAFVL
Amyloid ([1]; overall amyloid-forming call): ● | TEM [2, 5]: ● | pFTAA Binding [3]: ● | Th-T Binding [4]: ●

NFSIRY
Amyloid ([1]; overall amyloid-forming call): ● | TEM [2, 5]: ● | pFTAA Binding [3]: ● | Th-T Binding [4]: ●

NLYEKT
Amyloid ([1]; overall amyloid-forming call): ● | pFTAA Binding [3]: ●

QIIEIE
Amyloid ([1]; overall amyloid-forming call): ● | pFTAA Binding [3]: ● | Th-T Binding [4]: ●

QVFVWV
Amyloid ([1]; overall amyloid-forming call): ● | TEM [2, 5]: ● | pFTAA Binding [3]: ● | Th-T Binding [4]: ●

QVYYRP
Amyloid [1]: ● | TEM [2]: ●

SEFSKK
Amyloid ([1]; overall amyloid-forming call): ● | pFTAA Binding [3]: ●

SNFLRA
Amyloid ([1]; overall amyloid-forming call): ● | TEM [2, 5]: ●

SQFIKL
Amyloid ([1]; overall amyloid-forming call): ● | TEM [2, 5]: ●

STVISY
Amyloid ([1]; overall amyloid-forming call): ● | TEM [2, 5]: ● | pFTAA Binding [3]: ● | Th-T Binding [4]: ●

SVDYEV
Amyloid ([1]; overall amyloid-forming call): ● | pFTAA Binding [3]: ●

SYVLQT
Amyloid ([1]; overall amyloid-forming call): ● | pFTAA Binding [3]: ● | Th-T Binding [4]: ●

TDVVFM
Amyloid ([1]; overall amyloid-forming call): ● | pFTAA Binding [3]: ● | Th-T Binding [4]: ●

TIFLDF
Amyloid ([1]; overall amyloid-forming call): ● | pFTAA Binding [3]: ●

TKVIPY
Amyloid ([1]; overall amyloid-forming call): ● | pFTAA Binding [3]: ●

TLFTMD
Amyloid ([1]; overall amyloid-forming call): ● | TEM [2, 5]: ●

VDMAMC
Amyloid ([1]; overall amyloid-forming call): ● | pFTAA Binding [3]: ● | Th-T Binding [4]: ●

VHIVKL
Amyloid ([1]; overall amyloid-forming call): ● | TEM [2, 5]: ● | pFTAA Binding [3]: ●

VNFSEF
Amyloid ([1]; overall amyloid-forming call): ● | TEM [2, 5]: ● | pFTAA Binding [3]: ● | Th-T Binding [4]: ●

VNIELL
Amyloid ([1]; overall amyloid-forming call): ● | pFTAA Binding [3]: ● | Th-T Binding [4]: ●

VVVNKM
Amyloid ([1]; overall amyloid-forming call): ● | pFTAA Binding [3]: ●

VYTVFA
Amyloid ([1]; overall amyloid-forming call): ● | pFTAA Binding [3]: ● | Th-T Binding [4]: ●

VYVDVL
Amyloid ([1]; overall amyloid-forming call): ● | TEM [2, 5]: ● | pFTAA Binding [3]: ● | Th-T Binding [4]: ●

YDLHYW
Amyloid ([1]; overall amyloid-forming call): ● | TEM [2, 5]: ● | pFTAA Binding [3]: ● | Th-T Binding [4]: ●

YFHARG
Amyloid ([1]; overall amyloid-forming call): ● | TEM [2, 5]: ●

YFTAIQ
Amyloid ([1]; overall amyloid-forming call): ● | pFTAA Binding [3]: ● | Th-T Binding [4]: ●

YVAGIT
Amyloid ([1]; overall amyloid-forming call): ● | pFTAA Binding [3]: ● | Th-T Binding [4]: ●

From US20230245725A1, “Means and Methods for the Prediction of Amyloid Core Sequences” (VIB VZW, priority 2020, published 2023)
